Measured values taken from paper PMC9945177, “Nature-Derived Epoxy Resin Monomers with Reduced Sensitizing Capacity—Isosorbide-Based Bis-Epoxides” (Chemical Research in Toxicology, 2023).

What was measured:
guinea pig = details: cited from earlier work
[1] = skin permeability, static Franz diffusion cells; assay type: in vitro ADME, pig
Experimental: For the permeability experiments, ultra-performance liquid chromatography-electrospray ionization tandem mass spectroscopy (UPLC)-ESI-MS/MS analysis was carried out using a Xevo TQ-S micro triple quadrupole mass spectrometer equipped with an electrospray interface and coupled to an Acquity UPLC H-Class Plus system from Waters. Separation was achieved on an ACE Excel C18-PFP column (75 × 2.1 mm, 1.7 μm) from Advanced Chromatography Technologies Ltd. (Aberdeen, Scotland). Mobile phase A consisted of 0.1% formic acid and 5% acetonitrile in water, whereas mobile phase B consisted of 0.1% formic acid and 5% water in acetonitrile. The gradient program used was as follows: 20% B (0–2 min), 20–80% B (2–9 min), 80–95% B (9–9.1 min), 95% B (9.1–12 min), 95–20% B (12–12.1 min), 20% B (12.1–15 min). The flow rate was set to 0.3 mL/min and the injection volume was 2 μL. Analysis was performed in positive ionization mode using a Multiple Reaction Monitoring (MRM) method. The optimal parameters were capillary voltage 1.5 (kV), desolvation temperature 650 °C, desolvation gas 850 L/h, and cone 100 L/h.
The Franz diffusion cell experiment was based on the OECD Test Guidelines.[35] Static Franz diffusion cells equipped with pig ex vivo epidermis were used to assess the permeability of isosorbide bis-epoxides 2 and 3. Freshly cut pig ears were received frozen and stored at −20 °C until used for permeability assessment. One day before the experiment, the ears were transferred at +4 °C and allowed to thaw. The ears were then washed, shaved, and carefully cut with a Watson Dermatome skin graft knife to obtain 0.1 mm pieces of the epidermis layer. The integrity of the skin (transparent and intact) was determined by ocular inspection. Thereafter, the epidermis layer was cut and positioned between the donor and receptor compartment of each Franz cell. The receptor compartments were filled with 5 mL of ethanol/PBS (1:1) and equipped with a small magnetic stir bar to ensure mixing while maintaining a constant temperature of the circulating water at 37 °C. To equilibrate the skin, the upper chamber was filled with 0.5 mL of ethanol/PBS (1:1) which was later removed and replaced with the donor solution (50 μL) containing either 2 or 3 (0.1 mg/mL) or DGEBA (0.1 mg/mL) used as a positive control. A procedural blank containing only 50 μL of ethanol/PBS (1:1) in the donor compartment was also included in the experimental setup. Samples of 100 μL were collected after 0–2 min, 1, 2, 3, 4, 5, and 6 h. At each timepoint, a sample aliquot was removed and 100 μL of ethanol/PBS (1:1) was added to the receptor compartment to keep the volume constant. After 6 h, the skin from each Franz cell was extracted overnight in 5 mL of ethanol/PBS (1,1). Triplicate experiments were performed for each compound. The obtained samples were analyzed with UPLC-ESI-MS/MS (see Figure S2 for parameters) and quantification was based on external calibration curves. The limit of quantification (LOQ) was determined by the analysis of the analyte at low concentration and was calculated as 10 times the signal-to-noise ratio.

Female CBA/Ca mice = details: cited from earlier work
[2] = design: method as in Ponting et al. 26; details: polymer, TGA under nitrogen; ref Ponting et al. 26; cited from earlier work
[3] = Extract: skin extracted overnight after 6 h

CC(C)(c1ccc(OCC2CO2)cc1)c1ccc(OCC2CO2)cc1 (stereo not drawn) [DGEBA, diglycidyl ether of bisphenol A, reference compound]
skin sensitizer classification in guinea pig maximization test (guinea pig): strong
permeation of epidermis ([1]; 6 h experiment, donor 0.1 mg/mL): observed
Average (µM) [1, 3]: 0.206 µM
Average (µg/ml) [1, 3]: 0.0700 µg/mL
Replicate 1 [1, 3]: 0.0658 µg/mL
Replicate 2 (µg/ml) [1, 3]: < LOQ
Replicate 3 [1, 3]: 0.0742 µg/mL
recovery at 6 h, 0.1 mg/mL ([1]; pig, w/w %, sum of receptor compartment after 6 h and overnight skin extraction): 35%
Average (µM) ([1]; receptor fluid, timepoint 0 h): 0 µM
Average (µg/ml) ([1]; receptor fluid, timepoint 0 h): 0 µg/mL
Replicate 1 (µg/ml) ([1]; receptor fluid, timepoint 0 h): < LOQ
Replicate 2 (µg/ml) ([1]; receptor fluid, timepoint 0 h): < LOQ
Replicate 3 (µg/ml) ([1]; receptor fluid, timepoint 0 h): < LOQ
Average (µM) ([1]; receptor fluid, timepoint 1 h): 0 µM
Average (µg/ml) ([1]; receptor fluid, timepoint 1 h): 0 µg/mL
Replicate 1 (µg/ml) ([1]; receptor fluid, timepoint 1 h): < LOQ
Replicate 2 (µg/ml) ([1]; receptor fluid, timepoint 1 h): < LOQ
Replicate 3 (µg/ml) ([1]; receptor fluid, timepoint 1 h): < LOQ
Average (µM) ([1]; receptor fluid, timepoint 2 h): 0.595 µM
Average (µg/ml) ([1]; receptor fluid, timepoint 2 h): 0.203 µg/mL
Replicate 1 ([1]; receptor fluid, timepoint 2 h): 0.315 µg/mL
Replicate 2 ([1]; receptor fluid, timepoint 2 h): 0.184 µg/mL
Replicate 3 ([1]; receptor fluid, timepoint 2 h): 0.108 µg/mL
Average (µM) ([1]; receptor fluid, timepoint 3 h): 0.818 µM
Average (µg/ml) ([1]; receptor fluid, timepoint 3 h): 0.278 µg/mL
Replicate 1 ([1]; receptor fluid, timepoint 3 h): 0.419 µg/mL
Replicate 2 ([1]; receptor fluid, timepoint 3 h): 0.239 µg/mL
Replicate 3 ([1]; receptor fluid, timepoint 3 h): 0.177 µg/mL
Average (µM) ([1]; receptor fluid, timepoint 4 h): 0.868 µM
Average (µg/ml) ([1]; receptor fluid, timepoint 4 h): 0.296 µg/mL
Replicate 1 ([1]; receptor fluid, timepoint 4 h): 0.456 µg/mL
Replicate 2 ([1]; receptor fluid, timepoint 4 h): 0.229 µg/mL
Replicate 3 ([1]; receptor fluid, timepoint 4 h): 0.202 µg/mL
Average (µM) ([1]; receptor fluid, timepoint 5 h): 0.851 µM
Average (µg/ml) ([1]; receptor fluid, timepoint 5 h): 0.290 µg/mL
Replicate 1 ([1]; receptor fluid, timepoint 5 h): 0.436 µg/mL
Replicate 2 ([1]; receptor fluid, timepoint 5 h): 0.237 µg/mL
Replicate 3 ([1]; receptor fluid, timepoint 5 h): 0.196 µg/mL
Average (µM) ([1]; receptor fluid, timepoint 6 h): 0.817 µM
Average (µg/ml) ([1]; receptor fluid, timepoint 6 h): 0.278 µg/mL
Replicate 1 ([1]; receptor fluid, timepoint 6 h): 0.406 µg/mL
Replicate 2 ([1]; receptor fluid, timepoint 6 h): 0.218 µg/mL
Replicate 3 ([1]; receptor fluid, timepoint 6 h): 0.210 µg/mL
amount in receptor fluid after 6 h (%) ([1]; w/w %): 27.8 ± 9.0%
amount on/in skin (%) ([1]; w/w %, overnight skin extraction after 6 h): 7.0 ± 0.4%
recovery (%) ([1]; w/w %, sum of receptor compartment after 6 h and overnight skin extraction): 34.8 ± 9.4%
EC3 (Female CBA/Ca mice): 0.036 M
Ea (activation energy for the decomposition of the cured epoxy resins) [2]: 40.2 kcal/mol
IDT (initial decomposition temperature) [2]: 358 °C
Rmax (maximum weight loss rate) [2]: –2.17 %/°C
Tmax (temperature at the maximum rate of weight loss) [2]: 408 °C
